Results as given in article PMC7321108, “1-Hydroxyanthraquinones Containing Aryl Substituents as Potent and Selective Anticancer Agents” (Molecules, 2020).
Where two headings read alike, the source gives them in different places.

Assays:
DU-145 cells [1] = experiment: Cell cycle analysis by flow cytometry (Hoechst 33342), DU-145; type: cell-based, human; details: DU-145, treated at GI50 concentration, 24 h
Experimental: We have carried out flow cytometric study of compounds 13, 16 and the isomeric compound 25 (Table 4, Figure 4G,H). Concentrations of 16 and 25 were taken as 5.4 and 14.5 μM, respectively, as per cytotoxic studies (Table 1). After examining the data for 13 (Figure 4G, Table 4), a good number of cells are arrested in Sub-G1, G0/G1 and S phase. Biosynthetic activity is very high during Sub-G1 phase; this is probably achieved by enhancing of apoptosis. The isomeric molecule 25 arrest G0/G1 and S phases, i.e., affecting the DNA synthesis/replication mechanism. Similarly, for 25 a different pattern is observed, i.e., variations at S and G2/M phases were observed, in comparison to the control. […] Some difference in the mechanism of operation of 13 and 25 has been observed during the progression of cell cycle like: Sub-G1 phase was highly disturbed by 13 and S and G0/G1 phases were highly disturbed by 25.
(§1) For cell cycle analysis cells were seeded in 6-well plates (30,000 per plate) and incubate for adhesion for 24 h. […] Cells were washed with PBS twice, harvested, pelleted and resuspended in 0.5 mL of PBS. For staining the Hoechst 33342 Ready Flow Reagent (Invitrogen) was used according to the instruction. CytoFLEX flow cytometer (Beckman Coulter) was used for analysis. The results are presented as a percentage of cell population standing in different stages of the cell cycle.

[2] = test system: MT-4 cells of T-cellular human leucosis; experiment: MTT cytotoxicity assay, MT-4; type: cell-based; details: MT4, 72 h incubation, mean ± SEM of three experiments, read-out: Cytotoxicity (GI50) against MT-4
Experimental: (§2) The cytotoxicity of the synthesized series of 4-substituted 5, 13–17, 22, 23, 2-substituted 25–30 and 2,4-disubstituted 1-hydroxy-9,10-anthraquinones 33–38, 40–45 was evaluated against a panel of seven different human cancer cell lines (glioblastoma cancer cells, human prostate cancer cells, T-cellular human leucosis, breast cancer cells) and also a normal cell line of hTERT-immortalized lung fibroblasts, using conventional MTT assay. Doxorubicin (DOX) is clinically used to treat cancer as drug in world and have a very wide antitumor spectrum. That we use them as positive control compounds. The cytotoxicity was determined by measuring the concentration inhibiting human tumor cell viability by 50% (GI50).
(§3) The human cancer cells of the glioblastoma (U-87MG, SNB-19, T98G), prostate cancer cell line (LNCAP, DU-145), the cells of T-cellular human leucosis (MT-4) and human breast cancer cells (MDA-MB-231) were used in this study. The cells were cultured in the RPMI-1640 medium that contained 10% embryonic calf serum, L-glutamine (2 mmol/L), gentamicin ([…]) and lincomycin (30 mkg/mL) in a CO2 incubator at 37 °C. The tested compounds were dissolved in DMSO and added to the cellular culture at the required concentrations. Three wells were used for each concentration. The cells which were incubated without the compounds were used as a control. Cells were placed on 96-well microliter plates and cultivated at 37 °C in 5% CO2/95% air for 72 h. The cell viability was assessed through an MTT [3-(4,5-dimethylthiazol-2-yl)-[…]-2H-tetrazolium bromide] conversion assay. A total of 1% MTT was added to each well. Four hours later, DMSO was added and mixed for 15 min. Optical density (D) of the samples was measured on a BioRad 680 multi-well spectrophotometer (USA) at the wavelength of 450 nm. The 50% cytotoxic dose GI50) of each compound (i.e., the compound concentration that causes the death of 50% of cells in a culture, or decreases the optical density twice as compared to the control wells) was calculated from the data obtained. Statistical processing of the results was performed using the Microsoft Excel-2007, […] 6.0 and GraphPad Prism 5.0 programs. The results are given as an average value ± a deviation from the average (mean ± standard error of the mean (SEM)). Reliability of differences (p) was estimated using the Student t test. The differences with p < 0.05 were considered as reliable. The experimental results are given as the data average values obtained from three independently conducted experiments.

[3] = test system: SNB-19 glioblastoma cells; experiment: MTT cytotoxicity assay, SNB-19; type: cell-based; details: Homo sapiens, 72 h incubation, mean ± SEM of three experiments, read-out: Cytotoxicity (GI50) against SNB-19
Experimental: as §2, §3

[4] = test system: MDA-MB-231 breast cancer cells; experiment: MTT cytotoxicity assay, MDA-MB-231; type: cell-based; details: Homo sapiens, 72 h incubation, mean ± SEM of three experiments, read-out: Cytotoxicity (GI50) against MDA-MB-231
Experimental: as §2, §3

[5] = test system: LNCAP prostate cancer cells; experiment: MTT cytotoxicity assay, LNCAP; type: cell-based, human; details: Homo sapiens, LNCaP, 72 h, 72 h incubation, mean ± SEM of three experiments, read-out: Cytotoxicity (GI50) against LNCAP
Experimental: as §2, §3

[6] = test system: DU-145 prostate cancer cells; experiment: MTT cytotoxicity assay, DU-145; type: cell-based, human; details: 72 h incubation, mean ± SEM of three experiments, read-out: Cytotoxicity (GI50) against DU-145
Experimental: as §2, §3

[7] = test system: U-87MG glioblastoma cells; experiment: MTT cytotoxicity assay, U-87MG; type: cell-based; details: Homo sapiens, 72 h incubation, mean ± SEM of three experiments, read-out: Cytotoxicity (GI50) against U-87MG
Experimental: as §2, §3

DU-145 cells [8] = experiment: DNA synthesis investigation (BrdU/PI flow cytometry), DU-145; type: cell-based, human; details: DU-145, treated at GI50 concentration, 24 h, BrdU 30 min
Experimental: (§4) Cell cycle analysis was performed by Flow Cytometry using BrdU and PI staining [63]. For this experiment cells were seeded in 6-well plates (30,000 per plate) and incubate for adhesion for 24 h. […] For the next step the BrdU stock was added at a final concentration of 30 µM and cells were incubated for 30 min. Cells were washed with PBS, harvested using trypsine and resuspended at 0.3 mL of PBS. Permeabilization of cell membrane was performed as follows: 0.7 mL of ice-cold 100% EtOH was added into each sample, mixed gently and incubate at 4 °C for 1 h. Cells were pelleted and supernatant was removed completely. Then 0.5 mL of 2 N HCl/0.5% Triton X-100 was added and samples were incubated 30 min at room temperature. Cells were pelleted again, supernatant was removed. The pellet was resuspended in 0.5 mL of 0.1 M sodium tetraborate for 2 min and cells were pelleted again, washed with 150 µL of PBS/1% BSA and resuspended in 50 µM 0.5% Tween 20/1% BSA/PBS. […] After that the samples were resuspended in 0.5 mL of PBS containing 10 mg/mL RNAse A and 20 mg/mL PI. Samples were incubated at room temperature for 30 min and analyzed immediately or store at 4 °C. CytoFLEX flow cytometer (Beckman Coulter) was used for analysis. The results are presented as a percentage of cell population standing in DNA synthesis process.

T98G glioblastoma cells = experiment: MTT cytotoxicity assay, T98G; type: cell-based; details: Homo sapiens, 72 h incubation, mean ± SEM of three experiments, read-out: Cytotoxicity (GI50) against T98G
Experimental: as §2, §3

[9] = MTT cytotoxicity assay, normal hTERT-immortalized lung fibroblasts; type: cell-based; details: human, hTERT-immortalized lung fibroblasts (normal cell line), 72 h incubation, mean ± SEM of three experiments, read-out: Cytotoxicity (GI50) against hTERT Lung Fibroblasts
Experimental: as §2, §3

SNB-19 cells [10] = experiment: DNA synthesis investigation (BrdU/PI flow cytometry), SNB-19; type: cell-based, human; details: SNB-19, treated at GI50 concentration, 24 h, BrdU 30 min
Experimental: as §4

SNB-19 cells [11] = experiment: Cell cycle analysis by flow cytometry (Hoechst 33342), SNB-19; type: cell-based, human; details: SNB-19, treated at GI50 concentration, 24 h
Experimental: Due to the fact that the implementation of the antitumor potential of the currently existing antitumor agents is carried out by acting on various biological targets, at the next stage we performed the cell cycle analysis and DNA synthesis. Cell cycle analysis of 1-hydroxy-4-phenyl-9,10-anthraquinone 13, 1-hydroxy-4-(2,3-dimethoxyphenyl)-9,10- anthraquinone 16, 1-hydroxy-4-(furan-3-yl)-9,10-anthraquinone 23 and 1-hydroxy- 2-(2,3-dimethoxyphenyl)-9,10-anthraquinone 28 against SNB-19 cells for 24 h produced interesting results. After examining the data for compounds 13 and 16 (Table 3, Figure 4C,D), good number of cells are distributed in S phase, i.e., initiated DNA replication mechanism and also in G0/G1 phase, i.e., initial phase of cell cycle. G1 and G2 are the growth phases in cell cycle analysis, whereas S phase is a synthetic phase wherein DNA replication and DNA synthesis take place. The 2-aryl substituted compound 28 initiated the G0/G1 phase in analogy with doxorubicin and mitomycin. […] Further, compounds play a vital role in controlling the regulation of Sub-G1 and G2/M phases. Some difference in the mechanism of operation of 4-aryl substituted 13,16 and 2-aryl substituted 9,10-anthraquinones 28 has been observed during the progression of cell cycle like: S phase was highly disturbed by 13; G0/G1 phase was highly disturbed by 28. […] This observation can be explained by the influence on the cell repair systems that respond to the intercalation of compounds in DNA. […] Further, mitoxantrone promotes the arrest of S phase of cell cycle.
as §1

| SMILES | Population (% Cell Distribution) G0/G1 (DU-145 cells [1]) [%] | Population (% Cell Distribution) G2/M (DU-145 cells [1]) [%] | Population (% Cell Distribution) S (DU-145 cells [1]) [%] | Population (% Cell Distribution) Sub-G1 (DU-145 cells [1]) [%] | Population (% Cell Distribution) Super-G2 (DU-145 cells [1]) [%] | GI50 [2] [µM] | GI50 [3] [µM] | GI50 [4] [µM] | GI50 [5] [µM] | GI50 [7] [µM] | Population (% Cell Distribution) DNA Synthesis (DU-145 cells [8]) [%] | GI50 (T98G glioblastoma cells) [µM] | GI50 at 72 h [9] [µM] | Population (% Cell Distribution) DNA Synthesis (SNB-19 cells [10]) [%] | Population (% Cell Distribution) G0/G1 (SNB-19 cells [11]) [%] | Population (% Cell Distribution) G2/M (SNB-19 cells [11]) [%] | Population (% Cell Distribution) S (SNB-19 cells [11]) [%] | Population (% Cell Distribution) Sub-G1 (SNB-19 cells [11]) [%] | Population (% Cell Distribution) Super-G2 (SNB-19 cells [11]) [%] | also measured |
| --- | --- | --- | --- | --- | --- | --- | --- | --- | --- | --- | --- | --- | --- | --- | --- | --- | --- | --- | --- | --- |
| O=C1c2ccccc2C(=O)c2c1ccc(-c1ccccc1)c2O [Compound 25, 1-Hydroxy-2-phenylanthracene-9,10-dione] | 32.3 | 7.4 | 32.4 | 25.9 | 2.0 | > 100 | 6.8 ± 1.19 | 16.5 ± 0.88 | 32.1 ± 8.55 | > 100 | 20.27 | 21.5 ± 0.92 | 44.6 ± 2.46 |  |  |  |  |  |  | GI50 ([6]; Homo sapiens, DU-145, 72 h): 14.5 ± 0.73 µM; melting point: 174.1 °C (dec.) |
| COc1cccc2c1C(=O)c1c(O)c3c(c(O)c1C2=O)C[C@@](O)(C(=O)CO)C[C@@H]3O[C@H]1C[C@H](N)[C@H](O)[C@H](C)O1 [DOX, Doxorubicin, reference compound] | 48.8 | 15.9 | 28.1 | 0.3 | 6.8 | 0.2 ± 0.04 | 7.62 ± 0.69 | 7.9 ± 0.51 | 2.11 ± 0.4 | 6.11 ± 0.15 | 10.76 | 4.5 ± 0.46 | 2.2 ± 0.58 | 11.81 | 49.6 | 19.6 | 23.2 | 1.9 | 5.7 | GI50 [6]: 6.61 ± 0.34 µM |
| CO[C@@]12[C@H](COC(N)=O)C3=C(C(=O)C(C)=C(N)C3=O)N1C[C@@H]1N[C@@H]12 [Mitomycin C, reference compound] | 50.3 | 16.3 | 13.2 | 0.1 | 20.2 |  |  |  |  |  | 5.74 |  |  | 7.44 | 63.6 | 4.1 | 25.2 | 0.0 | 7.0 |  |
